Like-named read-outs stand apart in the source and are kept apart here.
Key:
[1] = tested on: MiaPaCa-2; assay: IC50 concentration by MTT colorimetric assay; assay type: cell-based, human
Procedure: (§1) MiaPaCa-2 and PANC-1 cells were trypsinized, washed, and incubated overnight in a humidified incubator. Each condition was performed in quadruplicate with 3×10^3 cells/well on a 96-well flat bottom plate. […] After drug treatment, 15 μL of the MTT dye solution was added to each well and incubated for 4 hours in a humidified incubator. The reaction was stopped by adding 100 μL of solubilization solution and the plate was incubated for an additional hour at room temperature. The wells were mixed and the absorbance was measured at 570 nm using a Synergy HTX Plate Reader. The % inhibition was calculated using the following equation: […]

[2] = tested on: L3.6; assay: IC50 concentration in L3.6 cells; assay type: cell-based
[3] = tested on: Pancreatic cancer (PC); settings: advanced or recurrent disease patients; cited from earlier work
[4] = tested on: BxPC-3 cells; assay: IC50 concentration in BxPC-3 cells; assay type: cell-based
[5] = tested on: CFPAC cells; assay: IC50 concentration in CFPAC cells; assay type: cell-based
[6] = tested on: PANC-1; assay: IC50 concentration by MTT colorimetric assay; assay type: cell-based, human
Procedure: as §1

Compound	IC50 ([1]; Homo sapiens, MIA PaCa-2, MiaPaCa-2, 72 hours treatment, MTT)	IC50 [2]	median survival [3]	IC50 ([4]; Homo sapiens)	IC50 ([5]; no unit printed at b33, read-out: IC50 dose)	IC50 ([5]; read-out: IC50 concentration)	IC50 ([1]; MiaPaCa-2, 72 hours treatment, MTT)	IC50 ([1]; MiaPaCa-2, no unit printed at b274)	IC50 ([6]; PANC-1, 72 hours treatment, MTT)	IC50 ([6]; PANC-1, no unit printed at b274)	IC50 [4]
Nc1ccn([C@@H]2O[C@H](CO)[C@@H](O)C2(F)F)c(=O)n1 [Gem, gemcitabine]	15.6 µM	12 µM	6.7 months								
O=c1[nH]cc(F)c(=O)[nH]1 [5FU, 5 fluorouracil]				14.6 µM	5 µM	5 µM					
N.N.[Cl][Pt][Cl] [CIS, cisplatin]		16 µM				10 µM	18.6 µM	18.6 µM	14 µM	14 µM	6.9 µM

From patent US20220175836A1, “PRIMING WITH TARGETED ACTIVATED T CELLS CAN ENHANCE CHEMO RESPONSIVENESS OF CANCER CELLS” (University of Virginia Patent Foundation, priority 2019, published 2022)
